Results from paper PMC10938783, “A novel pan-PI3K inhibitor KTC1101 synergizes with anti-PD-1 therapy by targeting tumor suppression and immune activation” (Molecular Cancer, 2024).

Test system: B16 cells gene expression
Experiment: RNA-Seq (DEGs, GSEA, heatmaps) of B16 cells
Conditions: B16 cells

SMILES: COc1cc(N)cc2c1nc(C(F)F)n2-c1nc(N2CCCOCC2)nc(N2CCOCC2)n1 [KTC1101, 2-(difluoromethyl)-4-methoxy-1-(4-morpholino-6-(1,4-oxazepan-4-yl)-1,3,5-triazin-2-yl)-1H-benzo[d]imidazol-6-amine]
- enrichmentScore, mmu04211 Longevity regulating pathway (KTC1101 0.2μM, GSEA KEGG): 0.2589
- enrichmentScore, mmu04213 Longevity regulating pathway - multiple species (KTC1101 0.2μM, GSEA KEGG): 0.2778
- enrichmentScore, mmu04215 Apoptosis - multiple species (KTC1101 0.2μM, GSEA KEGG): 0.3327
- enrichmentScore, mmu04216 Ferroptosis (KTC1101 0.2μM, GSEA KEGG): -0.2787
- enrichmentScore, mmu04217 Necroptosis (KTC1101 0.2μM, GSEA KEGG): -0.2455
- enrichmentScore, mmu04270 Vascular smooth muscle contraction (KTC1101 0.2μM, GSEA KEGG): 0.2845
- enrichmentScore, mmu04360 Axon guidance (KTC1101 0.2μM, GSEA KEGG): 0.2929
- enrichmentScore, mmu04392 Hippo signaling pathway - multiple species (KTC1101 0.2μM, GSEA KEGG): 0.3945
- enrichmentScore, mmu04514 Cell adhesion molecules (KTC1101 0.2μM, GSEA KEGG): 0.3446
- enrichmentScore, mmu04520 Adherens junction (KTC1101 0.2μM, GSEA KEGG): 0.258
- enrichmentScore, mmu04530 Tight junction (KTC1101 0.2μM, GSEA KEGG): -0.1527
- enrichmentScore, mmu04550 Signaling pathways regulating pluripotency of stem cells (KTC1101 0.2μM, GSEA KEGG): 0.3252
- enrichmentScore, mmu04611 Platelet activation (KTC1101 0.2μM, GSEA KEGG): 0.2724
- enrichmentScore, mmu04612 Antigen processing and presentation (KTC1101 0.2μM, GSEA KEGG): 0.2974
- enrichmentScore, mmu04622 RIG-I-like receptor signaling pathway (KTC1101 0.2μM, GSEA KEGG): 0.2627
- enrichmentScore, mmu04623 Cytosolic DNA-sensing pathway (KTC1101 0.2μM, GSEA KEGG): 0.3684
- enrichmentScore, mmu04650 Natural killer cell mediated cytotoxicity (KTC1101 0.2μM, GSEA KEGG): 0.2671
- enrichmentScore, mmu04658 Th1 and Th2 cell differentiation (KTC1101 0.2μM, GSEA KEGG): 0.359
- enrichmentScore, mmu04660 T cell receptor signaling pathway (KTC1101 0.2μM, GSEA KEGG): 0.174
- enrichmentScore, mmu04662 B cell receptor signaling pathway (KTC1101 0.2μM, GSEA KEGG): 0.2749
- enrichmentScore, mmu04666 Fc gamma R-mediated phagocytosis (KTC1101 0.2μM, GSEA KEGG): -0.2944
- enrichmentScore, mmu04670 Leukocyte transendothelial migration (KTC1101 0.2μM, GSEA KEGG): 0.2117
- enrichmentScore, mmu04714 Thermogenesis (KTC1101 0.2μM, GSEA KEGG): -0.2154
- enrichmentScore, mmu04720 Long-term potentiation (KTC1101 0.2μM, GSEA KEGG): 0.2329
- enrichmentScore, mmu04723 Retrograde endocannabinoid signaling (KTC1101 0.2μM, GSEA KEGG): 0.2816
- enrichmentScore, mmu04726 Serotonergic synapse (KTC1101 0.2μM, GSEA KEGG): 0.3744
- enrichmentScore, mmu04727 GABAergic synapse (KTC1101 0.2μM, GSEA KEGG): 0.3552
- enrichmentScore, mmu04728 Dopaminergic synapse (KTC1101 0.2μM, GSEA KEGG): 0.2754
- enrichmentScore, mmu04730 Long-term depression (KTC1101 0.2μM, GSEA KEGG): 0.3483
- enrichmentScore, mmu04750 Inflammatory mediator regulation of TRP channels (KTC1101 0.2μM, GSEA KEGG): 0.2734
- enrichmentScore, mmu04910 Insulin signaling pathway (KTC1101 0.2μM, GSEA KEGG): 0.2919
- enrichmentScore, mmu04912 GnRH signaling pathway (KTC1101 0.2μM, GSEA KEGG): 0.3311
- enrichmentScore, mmu04915 Estrogen signaling pathway (KTC1101 0.2μM, GSEA KEGG): 0.2687
- enrichmentScore, mmu04916 Melanogenesis (KTC1101 0.2μM, GSEA KEGG): 0.2873
- enrichmentScore, mmu04917 Prolactin signaling pathway (KTC1101 0.2μM, GSEA KEGG): 0.2949
- enrichmentScore, mmu04920 Adipocytokine signaling pathway (KTC1101 0.2μM, GSEA KEGG): 0.3361
- enrichmentScore, mmu04929 GnRH secretion (KTC1101 0.2μM, GSEA KEGG): -0.3021
- enrichmentScore, mmu04930 Type II diabetes mellitus (KTC1101 0.2μM, GSEA KEGG): 0.385
- enrichmentScore, mmu04932 Non-alcoholic fatty liver disease (KTC1101 0.2μM, GSEA KEGG): -0.2292
- enrichmentScore, mmu04934 Cushing syndrome (KTC1101 0.2μM, GSEA KEGG): 0.2719
- enrichmentScore, mmu04936 Alcoholic liver disease (KTC1101 0.2μM, GSEA KEGG): 0.2103
- enrichmentScore, mmu04960 Aldosterone-regulated sodium reabsorption (KTC1101 0.2μM, GSEA KEGG): 0.4243
- enrichmentScore, mmu04961 Endocrine and other factor-regulated calcium reabsorption (KTC1101 0.2μM, GSEA KEGG): 0.3281
- enrichmentScore, mmu04962 Vasopressin-regulated water reabsorption (KTC1101 0.2μM, GSEA KEGG): 0.3811
- enrichmentScore, mmu04970 Salivary secretion (KTC1101 0.2μM, GSEA KEGG): 0.3709
- enrichmentScore, mmu04972 Pancreatic secretion (KTC1101 0.2μM, GSEA KEGG): 0.3054
- enrichmentScore, mmu05017 Spinocerebellar ataxia (KTC1101 0.2μM, GSEA KEGG): -0.2487
- enrichmentScore, mmu05031 Amphetamine addiction (KTC1101 0.2μM, GSEA KEGG): 0.3398
- enrichmentScore, mmu05034 Alcoholism (KTC1101 0.2μM, GSEA KEGG): 0.2877
- enrichmentScore, mmu05100 Bacterial invasion of epithelial cells (KTC1101 0.2μM, GSEA KEGG): 0.1912
- enrichmentScore, mmu05132 Salmonella infection (KTC1101 0.2μM, GSEA KEGG): -0.223
- enrichmentScore, mmu05133 Pertussis (KTC1101 0.2μM, GSEA KEGG): 0.2038
- enrichmentScore, mmu05134 Legionellosis (KTC1101 0.2μM, GSEA KEGG): 0.3271
- enrichmentScore, mmu05135 Yersinia infection (KTC1101 0.2μM, GSEA KEGG): 0.1452
- enrichmentScore, mmu05145 Toxoplasmosis (KTC1101 0.2μM, GSEA KEGG): 0.3104
- enrichmentScore, mmu05160 Hepatitis C (KTC1101 0.2μM, GSEA KEGG): -0.1925
- enrichmentScore, mmu05162 Measles (KTC1101 0.2μM, GSEA KEGG): 0.3001
- enrichmentScore, mmu05165 Human papillomavirus infection (KTC1101 0.2μM, GSEA KEGG): 0.2105
- enrichmentScore, mmu05170 Human immunodeficiency virus 1 infection (KTC1101 0.2μM, GSEA KEGG): 0.2282
- enrichmentScore, mmu05200 Pathways in cancer (KTC1101 0.2μM, GSEA KEGG): 0.2563
- enrichmentScore, mmu05203 Viral carcinogenesis (KTC1101 0.2μM, GSEA KEGG): 0.2271
- enrichmentScore, mmu05204 Chemical carcinogenesis - DNA adducts (KTC1101 0.2μM, GSEA KEGG): -0.3876
- enrichmentScore, mmu05206 MicroRNAs in cancer (KTC1101 0.2μM, GSEA KEGG): 0.2735
- enrichmentScore, mmu05207 Chemical carcinogenesis - receptor activation (KTC1101 0.2μM, GSEA KEGG): 0.2555
- enrichmentScore, mmu05210 Colorectal cancer (KTC1101 0.2μM, GSEA KEGG): 0.2135
- enrichmentScore, mmu05211 Renal cell carcinoma (KTC1101 0.2μM, GSEA KEGG): -0.2497
- enrichmentScore, mmu05212 Pancreatic cancer (KTC1101 0.2μM, GSEA KEGG): -0.2279
- enrichmentScore, mmu05213 Endometrial cancer (KTC1101 0.2μM, GSEA KEGG): -0.2692
- enrichmentScore, mmu05214 Glioma (KTC1101 0.2μM, GSEA KEGG): 0.2912
- enrichmentScore, mmu05216 Thyroid cancer (KTC1101 0.2μM, GSEA KEGG): 0.217
- enrichmentScore, mmu05218 Melanoma (KTC1101 0.2μM, GSEA KEGG): 0.3678
- enrichmentScore, mmu05219 Bladder cancer (KTC1101 0.2μM, GSEA KEGG): 0.2813
- enrichmentScore, mmu05220 Chronic myeloid leukemia (KTC1101 0.2μM, GSEA KEGG): 0.2762
- enrichmentScore, mmu05223 Non-small cell lung cancer (KTC1101 0.2μM, GSEA KEGG): -0.2111
- enrichmentScore, mmu05231 Choline metabolism in cancer (KTC1101 0.2μM, GSEA KEGG): 0.3293
- enrichmentScore, mmu05235 PD-L1 expression and PD-1 checkpoint pathway in cancer (KTC1101 0.2μM, GSEA KEGG): 0.291
- enrichmentScore, mmu05412 Arrhythmogenic right ventricular cardiomyopathy (KTC1101 0.2μM, GSEA KEGG): 0.3444
- enrichmentScore, mmu05416 Viral myocarditis (KTC1101 0.2μM, GSEA KEGG): 0.3314
- enrichmentScore, mmu05417 Lipid and atherosclerosis (KTC1101 0.2μM, GSEA KEGG): 0.3016
- NES: Coronavirus disease - COVID-19 ([…], KTC 0.2μM): 2.023
- enrichmentScore: Coronavirus disease - COVID-19 ([…], KTC 0.2μM): 0.5276
